The values that follow are results of earlier work, collected in patent US20150252306A1, “COMPOSITIONS COMPRISING A PUNGENT AGENT” (The Procter & Gamble Company, priority 2014, published 2015).

The conditions of the series: Scoville heat units, given for comparison.

`COc1cc(CNC(=O)CCCC/C=C/C(C)C)ccc1O` [capsaicin]: the pungency level result is on record as “about 16 000 000 SHU”.
